Test results as given in US20170157012A1, “A Use of Isosorbide Monooleate” (BASF SE, priority 2014, published 2017).

Key:
[1] = In-vitro deposition on skin substitute after rinse-off (GC of extract); conditions: for In-vitro deposition of Isosorbide monooleate on the skin substitute per area: after rinse with water
Method: (§1) For measuring the deposition of isosorbide monooleate on a substrate a formulation containing isosorbide monooleate was applied to this substrate. Then, the treated area was rinsed with a defined amount of water and extracted with an organic solvent in order to determine the amount of isosorbide monooleate that remained on the surface after the rinse cycle. The extract was analyzed by gas chromatography (GC) and the amount of isosorbide monooleate deposited on the surface was calculated. The measurements were carried out as described in the experimental section of WO 2013/007473.
(§2) As substrate the human skin (forearm) of probands (in-vivo deposition) as well as a skin substitute (collagen layer) (in-vitro deposition) was used. The rinse-cycle (dilution with water) imitated the process of having a shower.
(§3) The following formulations were used for the deposition measurements (in-vitro as well as in-vivo).

[2] = In-vivo deposition on human skin after rinse-off (GC of extract)
Method: as §1, §2, §3

In-vitro deposition of Isosorbide monooleate on the skin substitute per area ([1]; 0.5 % by weight isosorbide monooleate in the formulation): 3.7 μg/cm^2 | In-vitro deposition of Isosorbide monooleate on the skin substitute per area ([1]; 1 % by weight isosorbide monooleate in the formulation): 7.3 μg/cm^2 | In-vitro deposition of Isosorbide monooleate on the skin substitute per area ([1]; 1.5 % by weight isosorbide monooleate in the formulation): 8.6 μg/cm^2 | In-vitro deposition of Isosorbide monooleate on the skin substitute per area ([1]; 2 % by weight isosorbide monooleate in the formulation): 15.8 μg/cm^2 | In-vivo Deposition of isosorbide monooleate on the skin per area ([2]; 1 % by weight isosorbide monooleate in the formulation, human forearm skin, after rinse-off): 0.7 μg/cm^2
Substance: isosorbide monooleate
Concentration dependency of deposition on the skin/skin substitute ([1]; formulations with 0.5 to 2 % by weight isosorbide monooleate): The higher the amount of isosorbide monooleate in the formulation the higher the deposition rate | Remaining on the skin after rinse-off (in words) ([2]; formulation with 1% by weight isosorbide monooleate): remained in small amounts on the skin after rinse-off
